Here are results for 13 compounds from PubChem BioAssay (NCI).

As usually defined, the TGI is the concentration at which net growth stops. Read a high TGI as less potent growth arrest. The GI50 is the concentration that inhibits growth by half.

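In this assay, cells in 96-well plates receive the compound at five concentrations for 48 hours. Endpoints are linearly interpolated between the surrounding concentrations. The concentration for 50% growth inhibition is given as GI50. TGI: concentration producing complete growth inhibition.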 Bounds are passed on as bounds.

Among the test systems are OVCAR-5 ovarian; IGROV1 ovarian; 786-0 renal; SK-MEL-5 melanoma; SR leukemia; SK-MEL-28 melanoma; SF-268 CNS; EKVX NSCLC; HCC-2998 colon; SF-539 CNS.
Common to all, as to test: DTP human tumour cell line panel, 48 h

Regarding `O=C(Nc1ccccc1)OC1OC(COC(=O)c2ccccc2)C(OC(=O)c2ccccc2)C1OS(=O)(=O)c1ccc([N+](=O)[O-])cc1` (stereo unspecified), the concentration for total growth inhibition (TGI) in the experiment with OVCAR-5 ovarian, in the experiment on IGROV1 ovarian, with 786-0 renal, in the experiment with SK-MEL-5 melanoma, in the experiment on SR leukemia and in the experiment with SK-MEL-28 melanoma was over 100 µM throughout. Moreover, the TGI in the experiment with SF-268 CNS, with EKVX NSCLC, in the experiment on HCC-2998 colon and with SF-539 CNS was over 100 µM in each case.

Turning to `O=C(Nc1cc(F)c(F)cc1C(=O)O)c1ccc(-n2ccnc2)nn1`, the GI50 with OVCAR-5 ovarian was over 100 µM; with IGROV1 ovarian it was over 100 µM; in the experiment with 786-0 renal it was over 100 µM; in the experiment with SK-MEL-5 melanoma, over 100 µM; in the experiment with SR leukemia it was 27.9 µM; in the experiment on SK-MEL-28 melanoma it was over 100 µM. The GI50 in the experiment on SF-268 CNS is over 100 µM; in the experiment with EKVX NSCLC, over 100 µM; in the experiment with HCC-2998 colon, over 100 µM; in the experiment on SF-539 CNS it was 34.4 µM. In addition, the TGI in the experiment on OVCAR-5 ovarian, in the experiment with IGROV1 ovarian, with 786-0 renal, with SK-MEL-5 melanoma, in the experiment on SR leukemia and with SK-MEL-28 melanoma was over 100 µM each time. In addition, the TGI with SF-268 CNS, in the experiment with EKVX NSCLC, in the experiment on HCC-2998 colon and in the experiment with SF-539 CNS was over 100 µM throughout.

`CCOC(=O)c1c(C)nc2c(c1N)/C(=C/c1ccccn1)C(=O)N2Cc1ccccc1`: the GI50 in the experiment on OVCAR-5 ovarian is 1.04 µM; with IGROV1 ovarian, 1.2 µM; with 786-0 renal, 0.867 µM; with SK-MEL-5 melanoma, 0.95 µM; with SR leukemia, 1.37 µM; with SK-MEL-28 melanoma it was 1.16 µM. The GI50 is 1.41 µM in the experiment on SF-268 CNS, 1.21 µM with EKVX NSCLC, 0.895 µM in the experiment with HCC-2998 colon and 0.882 µM in the experiment on SF-539 CNS. Further, the TGI in the experiment on OVCAR-5 ovarian is 2.68 µM; in the experiment on IGROV1 ovarian, 3.47 µM; in the experiment with 786-0 renal, 1.68 µM; in the experiment with SK-MEL-5 melanoma it was 1.92 µM; with SR leukemia it was over 50 µM; with SK-MEL-28 melanoma it was 3.21 µM. Further, the concentration for total growth inhibition (TGI) is over 50 µM in the experiment on SF-268 CNS, over 50 µM with EKVX NSCLC, 1.77 µM in the experiment on HCC-2998 colon and 1.77 µM in the experiment with SF-539 CNS.

`CS(=O)(=O)c1cccc(Nc2ncc3cc(-c4ccccc4Cl)ccc3n2)c1`: the GI50 with OVCAR-5 ovarian is 1.88 µM; with IGROV1 ovarian it was 1.1 µM; in the experiment on 786-0 renal it was 1.38 µM; in the experiment with SK-MEL-5 melanoma, 1.08 µM; in the experiment with SR leukemia it was 0.8 µM; in the experiment on SK-MEL-28 melanoma, 1.77 µM. In addition, the GI50 in the experiment with SF-268 CNS is 1.35 µM; with EKVX NSCLC, 1.37 µM; in the experiment with HCC-2998 colon, 2.8 µM; in the experiment on SF-539 CNS it was 0.94 µM. The TGI in the experiment on OVCAR-5 ovarian was over 33.3 µM; in the experiment on IGROV1 ovarian, 12.4 µM; in the experiment with 786-0 renal it was over 33.3 µM; in the experiment on SK-MEL-5 melanoma, 4.04 µM; in the experiment with SR leukemia, over 33.3 µM; with SK-MEL-28 melanoma it was over 33.3 µM. The TGI with SF-268 CNS is over 33.3 µM; with EKVX NSCLC it was over 33.3 µM; in the experiment on HCC-2998 colon, over 33.3 µM; in the experiment with SF-539 CNS it was 25.5 µM.

For the compound `Oc1ccc2ccccc2c1C=NCc1c(O)ccc2ccccc12`, the TGI in the experiment with OVCAR-5 ovarian, in the experiment with IGROV1 ovarian, in the experiment with 786-0 renal, in the experiment on SK-MEL-5 melanoma, with SR leukemia and with SK-MEL-28 melanoma was over 100 µM throughout. Besides, the TGI with SF-268 CNS is over 100 µM; in the experiment on EKVX NSCLC, 70.7 µM; in the experiment on HCC-2998 colon, over 100 µM; in the experiment on SF-539 CNS, over 100 µM.

`O=C(Nc1cc(Cl)ccc1O)c1cccc(Nc2ccnc(C(F)(F)F)c2)c1`: the GI50 in the experiment with OVCAR-5 ovarian was 13.9 µM; in the experiment on IGROV1 ovarian, 7.47 µM; in the experiment on 786-0 renal it was 3.56 µM; in the experiment with SK-MEL-5 melanoma, 1.3 µM; in the experiment with SR leukemia it was 0.811 µM; in the experiment with SK-MEL-28 melanoma, 6.15 µM. For the same compound, the GI50 is 7.35 µM in the experiment on SF-268 CNS, 2.43 µM in the experiment with EKVX NSCLC, 5.01 µM with HCC-2998 colon and 2.07 µM in the experiment on SF-539 CNS. Further, the TGI in the experiment with OVCAR-5 ovarian worked out at 38.5 µM; in the experiment on IGROV1 ovarian it was 33.9 µM; in the experiment on 786-0 renal it was 19.3 µM; with SK-MEL-5 melanoma, 3.83 µM; with SR leukemia, 15.2 µM; in the experiment on SK-MEL-28 melanoma, 19.1 µM. Also, the total growth inhibition concentration (TGI) with SF-268 CNS is 22.8 µM; in the experiment on EKVX NSCLC it was 10.7 µM; in the experiment on HCC-2998 colon, 17.1 µM; in the experiment on SF-539 CNS it was 15 µM.

As to `O=C(N=c1nc(NC(=O)c2ccccc2)ss1)c1ccccc1`, the TGI is over 100 µM in the experiment on OVCAR-5 ovarian; over 100 µM in the experiment with IGROV1 ovarian; over 100 µM in the experiment on 786-0 renal; 34.7 µM with SK-MEL-5 melanoma; 75.4 µM with SR leukemia; over 100 µM in the experiment on SK-MEL-28 melanoma. The TGI with SF-268 CNS is over 100 µM; in the experiment with EKVX NSCLC, over 100 µM; with HCC-2998 colon, over 100 µM; in the experiment with SF-539 CNS it was 37.9 µM.

For `O=C1Cc2cc(CCn3cncn3)c(Cl)cc2N1`, the GI50 is over 100 µM in the experiment on OVCAR-5 ovarian; over 100 µM in the experiment on IGROV1 ovarian; over 100 µM with 786-0 renal; 10.1 µM with SK-MEL-5 melanoma; 11.8 µM with SR leukemia; 21 µM in the experiment with SK-MEL-28 melanoma. The GI50 was 59.6 µM in the experiment with SF-268 CNS, 0.825 µM in the experiment on EKVX NSCLC, over 100 µM in the experiment on HCC-2998 colon and over 100 µM in the experiment with SF-539 CNS. Moreover, the TGI in the experiment on OVCAR-5 ovarian, in the experiment with IGROV1 ovarian, in the experiment with 786-0 renal, in the experiment on SK-MEL-5 melanoma, in the experiment on SR leukemia and with SK-MEL-28 melanoma was over 100 µM each time. In addition, the TGI with SF-268 CNS, in the experiment with EKVX NSCLC, in the experiment with HCC-2998 colon and in the experiment with SF-539 CNS was over 100 µM throughout.

`COc1ccccc1[As]=[As]c1ccccc1OC` (stereo unspecified): the concentration for 50% growth inhibition (GI50) in the experiment on OVCAR-5 ovarian is 0.0627 µM; with IGROV1 ovarian, 0.0414 µM; with 786-0 renal, 0.0377 µM; in the experiment on SK-MEL-5 melanoma it was 0.0468 µM; with SR leukemia it was 0.0277 µM; in the experiment with SK-MEL-28 melanoma it was 0.0437 µM. The GI50 in the experiment with SF-268 CNS was 0.036 µM; with EKVX NSCLC, 0.12 µM; in the experiment on HCC-2998 colon it was 0.0785 µM; in the experiment with SF-539 CNS, 0.0383 µM. In addition, the TGI was 0.181 µM with OVCAR-5 ovarian; 0.209 µM in the experiment with IGROV1 ovarian; 0.0853 µM with 786-0 renal; 0.163 µM in the experiment with SK-MEL-5 melanoma; 0.0707 µM in the experiment on SR leukemia; 0.153 µM with SK-MEL-28 melanoma. Also, the TGI in the experiment with SF-268 CNS was 0.14 µM; with EKVX NSCLC, 0.271 µM; with HCC-2998 colon it was 0.218 µM; with SF-539 CNS, 0.144 µM.

With `CCC(C)C1=C(O)[N+]2([O-])Oc3ccc(C4=C(O)C(=O)C(c5ccc(O)cc5)=C(O)C4=O)cc3OC2(C(C)CC)C(=O)N1O` (stereo unspecified), the GI50 in the experiment on OVCAR-5 ovarian was over 100 µM; in the experiment on IGROV1 ovarian, 17 µM; with 786-0 renal it was 26.1 µM; with SK-MEL-5 melanoma, 6.82 µM; in the experiment with SR leukemia, 1.25 µM; with SK-MEL-28 melanoma, 85.7 µM. Further, the GI50 with SF-268 CNS was 5.83 µM; in the experiment on EKVX NSCLC it was 23.7 µM; with HCC-2998 colon it was 6.78 µM; in the experiment with SF-539 CNS, 15.8 µM. Besides, the TGI with OVCAR-5 ovarian was over 100 µM; in the experiment with IGROV1 ovarian it was over 100 µM; with 786-0 renal it was over 100 µM; in the experiment on SK-MEL-5 melanoma it was 27.3 µM; in the experiment on SR leukemia, 7.81 µM; with SK-MEL-28 melanoma, over 100 µM. The TGI was over 100 µM with SF-268 CNS, over 100 µM with EKVX NSCLC, 57.2 µM with HCC-2998 colon and over 100 µM in the experiment with SF-539 CNS.

`CC(=O)Nc1ccc(S(=O)(=O)N=S(C)C)cc1`: the TGI in the experiment on OVCAR-5 ovarian, in the experiment on IGROV1 ovarian, in the experiment with 786-0 renal, with SR leukemia, in the experiment on SK-MEL-28 melanoma and in the experiment with SF-268 CNS was over 100 µM throughout. Besides, the TGI with EKVX NSCLC, in the experiment with HCC-2998 colon and with SF-539 CNS was over 100 µM in each case.

For `COS(C)(=O)=O`, the TGI in the experiment with OVCAR-5 ovarian, in the experiment on IGROV1 ovarian, in the experiment with 786-0 renal, in the experiment with SR leukemia, with SK-MEL-28 melanoma and with SF-268 CNS was over 2 µM each time. Moreover, the TGI in the experiment on EKVX NSCLC, with HCC-2998 colon and with SF-539 CNS was over 2 µM throughout.

For `CCN1C(=O)N(CC)C2C1NN=c1s/c(=C3\C(=O)N(C4CCCC4)c4ccccc43)c(=O)n12` (stereo unspecified), the GI50 in the experiment on OVCAR-5 ovarian was 3.75 µM; with IGROV1 ovarian it was 0.773 µM; in the experiment with 786-0 renal, 1.71 µM; with SR leukemia it was 0.392 µM; in the experiment with SK-MEL-28 melanoma it was 1.18 µM; in the experiment with SF-268 CNS it was 2.38 µM. Moreover, the GI50 with EKVX NSCLC was 3.36 µM; in the experiment on HCC-2998 colon, 1.65 µM; in the experiment on SF-539 CNS, 0.484 µM. Besides, the TGI in the experiment with OVCAR-5 ovarian was over 100 µM; in the experiment on IGROV1 ovarian it was over 100 µM; in the experiment on 786-0 renal, 4.86 µM; in the experiment with SR leukemia, over 100 µM; in the experiment with SK-MEL-28 melanoma, over 100 µM; in the experiment on SF-268 CNS, 27.6 µM. The total growth inhibition concentration (TGI) with EKVX NSCLC was over 100 µM; in the experiment with HCC-2998 colon, 5.19 µM; in the experiment on SF-539 CNS, 2.4 µM.
